US12534450B2, “Methods and compositions for targeting PD-L1” (Aligos Therapeutics, Inc., priority 2021, dated 2026)

Molecular target: PD-1/PD-L1 PPI (Homo sapiens, UniProt Q9NZQ7)
Assay: PDL1/PD1 Binding Assay
Settings: PDL1-6×His 0.3 nM, PD1-Fc-Avi-Biotin 2.5 nM, Acceptor/Donor beads, Envision reader
Description: Compounds to be tested were serially diluted in DMSO, and further diluted in assay buffer (25 mM Hepes pH 7.4, 150 mM NaCl, 0.005% Tween 20, BSA 0.01%). Diluted compounds were added to the wells with final concentration of DMSO at 1%. PDL1-6×His protein was added to the wells, mixed well with compound. The plates were incubated for 30 min at room temperature. PD1-Fc-Avi-Biotin protein was added to the wells. Final concentration of PDL1 and PD1 protein is 0.3 nM and 2.5 nM, respectively. After a binding time of 30 min at room temperature, Anti-6×His Acceptor beads (final concentration 20 ug/ml) were added to the wells, and the incubation continued for 1 h. Streptavidin Donor beads (final concentration 20 ug/mL) were added at reduced light. The plates were sealed with foil and incubated in the dark for additional 1 h or overnight before reading on an Envision reader. The IC50 values were determined by fitting the curves using a four-parameter equation in Graphpad Prism 8.

PD-1/PD-L1 PPI, sequence (Q9NZQ7 19-238 limits assumed): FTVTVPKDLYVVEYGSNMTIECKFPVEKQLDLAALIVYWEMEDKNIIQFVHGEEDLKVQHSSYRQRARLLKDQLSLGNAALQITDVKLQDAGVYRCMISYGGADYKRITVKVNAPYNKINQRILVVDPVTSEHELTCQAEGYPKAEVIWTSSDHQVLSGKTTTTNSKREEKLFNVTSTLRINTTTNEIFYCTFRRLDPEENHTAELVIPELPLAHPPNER

IC50 [µM] | Structure (SMILES)
≤ 0.01 | COc1nc(-c2cccc(-c3cccc(NC(=O)c4cn(C)c(=O)n(C)c4=O)c3Cl)c2Cl)cc2c1[C@@H](N1CC(OC)C1)CC2 (single isomer, unassigned) [Compound A-24]
≤ 0.01 | COc1nc(-c2cccc(-c3cccc(NC(=O)c4cn(C)c(=O)n(C)c4=O)c3Cl)c2Cl)cc2c1[C@@H](N1CC(O)C1)CC2 (single isomer, unassigned) [Compound A-26]
≤ 0.01 | COc1nc(-c2cccc(-c3cccc(NC(=O)c4cn(C)c(=O)n(C)c4=O)c3Cl)c2F)cc2c1[C@H](N[C@@H]1CCOC[C@@H]1O)CC2 (single isomer, unassigned) [Compound A-32]
≤ 0.01 | COc1nc(-c2cccc(-c3cccc(NC(=O)c4cn(C)c(=O)n(C)c4=O)c3C)c2C)cc2c1[C@H](N[C@@H]1CCOC[C@@H]1O)CC2 (single isomer, unassigned) [Compound A-34]
≤ 0.01 | COc1nc(-c2cccc(-c3cccc(NC(=O)c4cn(C)c(=O)n(C)c4=O)c3C)c2F)cc2c1[C@H](N[C@@H]1CCOC[C@@H]1O)CC2 (single isomer, unassigned) [Compound A-35]
≤ 0.01 | COc1nc(-c2cccc(-c3cccc(NC(=O)c4cn(C)c(=O)n(C)c4=O)c3F)c2Cl)cc2c1[C@H](N[C@@H]1CCOC[C@@H]1O)CC2 (single isomer, unassigned) [Compound A-36]
≤ 0.01 | COc1nc(-c2cccc(-c3cccc(NC(=O)c4cn(C)c(=O)n(C)c4=O)c3F)c2C)cc2c1[C@H](N[C@@H]1CCOC[C@@H]1O)CC2 (single isomer, unassigned) [Compound A-37]
≤ 0.01 | COc1nc(-c2cccc(-c3cccc(NC(=O)c4cn(C)c(=O)n(C)c4=O)c3F)c2F)cc2c1[C@H](N[C@@H]1CCOC[C@@H]1O)CC2 (single isomer, unassigned) [Compound A-38]
≤ 0.01 | COc1nc(-c2cccc(-c3cccc(NC(=O)c4cn(C)c(=O)n(C)c4=O)c3C)c2Cl)cc2c1[C@H](NC[C@@H]1CCC(=O)N1)CC2 [Compound A-10]
≤ 0.01 | COc1nc(-c2cccc(-c3cccc(NC(=O)c4cn(C)c(=O)n(C)c4=O)c3F)c2Cl)cc2c1[C@H](NC[C@@H]1CCC(=O)N1)CC2 [Compound A-11]
≤ 0.01 | COc1nc(-c2cccc(-c3cccc(NC(=O)c4cn(C)c(=O)n(C)c4=O)c3Cl)c2C)cc2c1[C@H](NC[C@@H]1CCC(=O)N1)CC2 [Compound A-12]
≤ 0.01 | COc1nc(-c2cccc(-c3cccc(NC(=O)c4cn(C)c(=O)n(C)c4=O)c3C)c2C)cc2c1[C@H](NC[C@@H]1CCC(=O)N1)CC2 [Compound A-13]
≤ 0.01 | COc1nc(-c2cccc(-c3cccc(NC(=O)c4cn(C)c(=O)n(C)c4=O)c3F)c2C)cc2c1[C@H](NC[C@@H]1CCC(=O)N1)CC2 [Compound A-14]
≤ 0.01 | COc1nc(-c2cccc(-c3cccc(NC(=O)c4cn(C)c(=O)n(C)c4=O)c3Cl)c2F)cc2c1[C@H](NC[C@@H]1CCC(=O)N1)CC2 [Compound A-15]
≤ 0.01 | COc1nc(-c2cccc(-c3cccc(NC(=O)c4cn(C)c(=O)n(C)c4=O)c3C)c2F)cc2c1[C@H](NC[C@@H]1CCC(=O)N1)CC2 [Compound A-16]
≤ 0.01 | COc1nc(-c2cccc(-c3cccc(NC(=O)c4cn(C)c(=O)n(C)c4=O)c3C)c2Cl)cc2c1[C@@H](N(C[C@@H]1CCC(=O)N1)C(=O)OCc1oc(=O)oc1C)CC2 [Compound F-1]

Structure (SMILES) | IC50 [µM]
CCOC(=O)N(C[C@@H]1CCC(=O)N1)[C@H]1CCc2cc(-c3cccc(-c4cccc(NC(=O)c5cn(C)c(=O)n(C)c5=O)c4C)c3Cl)nc(OC)c21 [Compound E-1] | ≤ 0.01

System: PD-1/PD-L1 interaction
Assay: PD-1/PD-L1 NFAT Reporter Assay (co-culture of Jurkat T cells overexpressing PD-1 and PD-L1 expressing CHO cells)
Format: cell-based
Settings: Homo sapiens, Jurkat, 6 h, co-culture 6 hrs at 37° C., NFAT-mediated luciferase activity
Description: Blocking the PD-1/PD-L1 interaction will release the inhibitory signal and results in TCR signaling and NFAT-mediated luciferase activity.
CHO cells expressing surface-bound anti-CD3 antibodies and PD-L1 were first seeded overnight and treated with the compounds. Jurkat cells overexpressing PD-1 and a luciferase construct under NFAT promoter were then immediately seeded on the monolayer of CHO cells. The co-culture was then incubated for 6 hrs at 37° C. Luciferase activity was assessed by adding the ONE-Glo reagent and measuring luminescence with a plate reader. EC50 values were determined from the fit of the dose-response curves.

EC50 [µM] | Structure (SMILES)
≤ 0.01 | COc1nc(-c2cccc(-c3cccc(NC(=O)c4nn(C)c(=O)n(C)c4=O)c3Cl)c2Cl)cc2c1[C@H](N1CC3(CN(C(C)=O)C3)C1)CC2 (single isomer, unassigned) [Compound A-71]
0.01 to 0.1 | COc1nc(-c2cccc(-c3cccc(NC(=O)c4cn(C)c(=O)n(C)c4=O)c3Cl)c2C#N)cc2c1[C@@H](N[C@@H]1CCOC[C@@H]1O)CC2 (single isomer, unassigned) [Compound A-73]
≤ 0.01 | COc1nc(-c2cccc(-c3cccc(NC(=O)c4nn(C)c(=O)n(C)c4=O)c3Cl)c2Cl)cc2c1[C@@H](N[C@@H]1CCOC[C@@H]1O)CC2 (single isomer, unassigned) [Compound A-76]
≤ 0.01 | COc1nc(-c2cccc(-c3cccc(NC(=O)c4nn(C)c(=O)n(C)c4=O)c3C)c2Cl)cc2c1[C@@H](N[C@@H]1CCOC[C@@H]1O)CC2 (single isomer, unassigned) [Compound A-77]
> 5 | COc1nc(-c2cccc(-c3cccc(NC(=O)c4cn(C)c(=O)n(C)c4=O)c3C)c2Cl)cc2c1[C@@H](NC[C@@H]1CCC(=O)N1)C(C)(C)C2 (single isomer, unassigned) [Compound A-123]
1 to 10 | COc1nc(-c2cccc(-c3cccc(NC(=O)c4cn(C)c(=O)n(C)c4=O)c3C)c2Cl)cc2c1[C@H](NC[C@@H]1CCC(=O)N1)C(C)(C)C2 (single isomer, unassigned) [Compound A-124]
≤ 0.01 | COc1nc(-c2cccc(-c3cccc(NC(=O)c4cn(C)c(=O)n(C)c4=O)c3C)c2Cl)cc2c1[C@H](NC[C@@H]1CNC(=O)C1)CC2 (single isomer, unassigned) [Compound A-138]
≤ 0.01 | COc1nc(-c2cccc(-c3cccc(NC(=O)c4cn(C)c(=O)n(C)c4=O)c3C)c2Cl)cc2c1[C@@H](N1CC3(CCC(=O)N3)C1)CC2 (single isomer, unassigned) [Compound A-139]
0.01 to 0.1 | COc1nc(-c2cccc(-c3cccc(NC(=O)c4cn(C)c(=O)n(C)c4=O)c3F)c2F)cc2c1[C@@H](NC[C@@H]1CCC(=O)N1)CC2 [Compound A-9]
0.1 to 1 | COc1cc(-c2cccc(-c3cccc(NC(=O)c4cn(C)c(=O)n(C)c4=O)c3Cl)c2Cl)cc2c1CC(NC[C@@H]1CCC(=O)N1)C2 (some centres unmarked) [Compound A-48]
0.01 to 0.1 | COc1nc(-c2cccc(-c3cccc(NC(=O)c4cn(C)c(=O)n(C)c4=O)c3Cl)c2C#N)cc2c1[C@@H](NC[C@@H]1CCC(=O)N1)CC2 [Compound A-50]
0.01 to 0.1 | COc1nc(-c2ccc(F)c(-c3cccc(NC(=O)c4cn(C)c(=O)n(C)c4=O)c3C)c2F)cc2c1[C@H](N1CC(O)C1)CC2 [Compound A-81]
0.01 to 0.1 | COc1nc(-c2cccc(-c3cccc(NC(=O)c4cn(C)c(=O)n(C)c4=O)c3Cl)c2Cl)cc2c1C(N[C@H]1CCOC[C@@H]1O)CC2 (stereo partly drawn) [Compound D-8a]
0.01 to 0.1 | COc1nc(-c2cccc(-c3cccc(NC(=O)c4cn(C)c(=O)n(C)c4=O)c3C)c2Cl)cc2c1C(NCC(=O)O)CC2 [Compound D-12]
0.01 to 0.1 | COc1nc(-c2cccc(-c3cccc(NC(=O)c4cn(C)c(=O)n(C)c4=O)c3C)c2Cl)cc2c1C(NCC(=O)N1CCCC1)CC2 [Compound D-13]
≤ 0.01 | COc1nc(-c2cccc(-c3cccc(NC(=O)c4cn(C)c(=O)n(C)c4=O)c3Cl)c2Cl)cc2c1C(N1CC3(CNC(=O)C3)C1)CC2 [Compound D-14]
≤ 0.01 | COc1nc(-c2cccc(-c3cccc(NC(=O)c4cn(C)c(=O)n(C)c4=O)c3C)c2Cl)cc2c1[C@@H](N(C)C[C@@H]1CCC(=O)N1)CC2 [Compound I-1]

Same assay, conditions: co-culture 6 hrs at 37° C., NFAT-mediated luciferase activity

EC50 [µM] | Structure (SMILES)
0.01 to 0.1 | COc1nc(-c2ccc(F)c(-c3cccc(NC(=O)c4cn(C)c(=O)n(C)c4=O)c3C)c2F)cc2c1[C@H](N1CC(O)C1)CC2 [Compound A-82]
